Results taken from ChEMBL document CHEMBL1125994, “Synthesis of 9-[2,2-bis(hydroxymethyl)cycloprop-1-yl]guanine as a potential antiviral agent” (Bioorg Med Chem Lett, 1991).
Activity calls are given as the source filed them.

Key:
Type in all cases: functional, cell-based
[1] = tested on: MRC5; assay: Compound was tested for antiviral activity against VZV (Ellen) strain at a concentration of 100 ug/mL in MRC-5 (human fibroblast) cells; IA denotes inactive
[2] = tested on: MRC5; assay: Compound was tested for antiviral activity against CMV (cytomegalovirus) (AD169) at a concentration of 100 ug/mL in MRC-5 (human fibroblast) cells; IA denotes inactive
[3] = tested on: MRC5; assay: Compound was tested for antiviral activity against HSV-2 (MS) strain at a concentration of 100 ug/mL in MRC-5 (human fibroblast) cells; IA denotes inactive
[4] = tested on: MRC5; assay: Compound was tested for antiviral activity against HSV-1 (SC16 strain)at a concentration of 100 ug/mL in MRC-5 (human fibroblast) cells; IA denotes inactive

Measured: Antiviral activity

Nc1nc(O)c2ncn(C3CC3(CO)CO)c2n1 (centres undefined)
inactive: all assays above
